Source: publication PMC11219871, “Epigenetic-based differentiation therapy for Acute Myeloid Leukemia” (Nature Communications, 2024)
Values joined by “and” are separate entries in the source; they are usually repeats but may differ in a detail not shown here. Equal values may be shown once.

Key:
[1] = system: MOLM-13 i.v. in BALB/cA Rag2-/-γc-/- mice; test: Intravenous xenograft model (survival, CD11b in blood, body weight); type: in vivo, mouse; details: for Body weight: intravenous MOLM-13 AML mouse model, individual mice
Protocol: (§1) The human AML MV4-11 and MOLM-13 xenograft mice models were generated by intravenous (i.v.) injection of 10 × 10^6 (MV4-11) or 1 × 10^4 (MOLM-13) cells diluted in 100 µL of saline solution in the tail vein of a 6-8-week-old female BALB/cA Rag2^−/−γc^−/− mice (n = 10). Treatment started 7 or 1 day after MV4-11 or MOLM-13 cells injection, respectively. MV4-11 and MOLM-13 mice were treated with i.p. 10 mg/kg of CM-444 and CM-1758 during 5 consecutive days followed by 2 resting days for 7 and 2 weeks, respectively. The control group received only 80% saline solution, 10% DMSO and 10% Tween 20 (diluents of CM-444 and CM-1758). The mice weight was controlled and remained stable during the treatment. Statistical results were calculated using the statistical software Medcalc. CD11b levels in blood samples from an intravenous MV4-11 mice model were measured by flow cytometry, as described above.

[2] = system: MV4-11 i.v. in BALB/cA Rag2-/-γc-/- mice; test: as above; type: in vivo, mouse; details: for body weight of mice: intravenous MV4-11 AML mouse model, individual mice
Protocol: as §1

MV4-11 = test: Cell-cycle analysis; type: cell-based, human; details: MV4-11, 48 hours
Protocol: (§2) […] Next, the cells were washed twice with PBS and resuspended in 0.2% Tween 20 in PBS and 0.5 mg/mL Rnase A (Ribonuclease A Type III-A from bovine pancreas, Cat No. R5125, Sigma), and then incubated for 30 min at 37 °C. Subsequently, the cells were stained with 25 μg/mL of propidium iodide (Cat No P4170, Sigma) and analyzed using a BD FACSCanto flow cytometer (Becton Dickinson, San Jose, CA, USA).

MOLM-13 = test: Cell-cycle analysis; type: cell-based, human; details: MOLM-13, 48 hours
Protocol: as §2

ML-2 = test: Cell-cycle analysis; type: cell-based, human; details: ML-2, treatment for 48 hours; replicates 1-3 (Figure 2F)
Protocol: as §2

Jarid1B = target: T1, Jarid1B (Homo sapiens, UniProt Q9UGL1); test: Epigenetic panel (BPS Bioscience); type: biochemical
T1 construct: purchased BPS Bioscience; Eurofins (HDAC4, 5, 7-11)
Description: (§3) The selectivity of CM-444 and CM-1758 against other epigenetic targets, including histone demethylase (JMJD2A, JMJD2B, JMJD2C, JMJD2D, JMJD2E, JMJD3, JMJD1A, LSD1, Jarid1A, Jarid1B, Jarid1C, FBXL10, FBXL11, JHDM1D, JMJD1B, PHF8, LSD2 and UTX); histone acetyltransferases (GCN5, P300); histone methyltransferases (G9a, GLP, MLL1, SET7/9, SUV39H1, SUV39H2, PRMT1, PRMT3, PRMT4, PRMT5, PRMT6, PRMT8, PRMT9, NSD1, NSD2, EZH1, EZH2, SETDB1, SETD2, SET8, SUV4-20H1, SMYD2, SMYD3, DOT1L, EZH2 (A677G), EZH2 (A677G), EZH2 (A738T), EZH2 (Y641S), EZH2 (P132S), EZH2 (Y641C), EZH2 (Y641F), EZH2 (Y641H), EZH2 (Y641N)); bromodomains (ATAD2B, ATAD2A, BRD1, BRD9, BPTF/FALZ, CeCR2, BRPF3, BRD3 (BD1 + BD2), BAZ2B, WDR9, TAF1 (BD2), TAF1L (BD2), TAF1L (BD1 + BD2), BRD2 (BD1), BRD2 (BD2), BRD2 (BD1 + BD2), BRD3 (BD1), BRD3 (BD2), BRD4 (BD1), BRD4 (BD2), BRD4 (BD1 + BD2), BRDT (BD1), BRDT (BD1 + BD2), CREBBP, SMARCA2A, SMARCA4/BRG1); DNA methyltranferases (DNMT1, DNMT3A/3L and DNMT3B/3L), and sirtuin histone deacetylases (SIRT1, SIRT2, SIRT3, SIRT5 and SIRT6), were determined by BPS Bioscience (http://www.bpsbioscience.com/index.ph). Binding experiments were performed in duplicate at a concentration of 10 μM.

SIRT1 = target: T2, SIRT1 (Homo sapiens, UniProt Q96EB6); test: Epigenetic panel (BPS Bioscience); type: biochemical
T2 construct: purchased BPS Bioscience; Eurofins (HDAC4, 5, 7-11)
Description: as §3

JMJD2A = target: T3, JMJD2A (Homo sapiens, UniProt O75164); test: Epigenetic panel (BPS Bioscience); type: biochemical
T3 construct: purchased BPS Bioscience; Eurofins (HDAC4, 5, 7-11)
Description: as §3

P300 = target: T4, P300 (Homo sapiens, UniProt Q09472); test: Epigenetic panel (BPS Bioscience); type: biochemical
T4 construct: purchased BPS Bioscience; Eurofins (HDAC4, 5, 7-11)
Description: as §3

PRMT3 = target: T5, PRMT3 (Homo sapiens, UniProt O60678); test: Epigenetic panel (BPS Bioscience); type: biochemical
T5 construct: purchased BPS Bioscience; Eurofins (HDAC4, 5, 7-11)
Description: as §3

EZH2 = target: T6, EZH2 (Homo sapiens, UniProt Q15910); test: Epigenetic panel (BPS Bioscience); type: biochemical
T6 construct: purchased BPS Bioscience; Eurofins (HDAC4, 5, 7-11)
Description: as §3

EZH2 (Y641S) = target: T7, EZH2 (Y641S) (Homo sapiens, UniProt Q15910, Y641S); test: Epigenetic panel (BPS Bioscience); type: biochemical
T7 construct: purchased BPS Bioscience; Eurofins (HDAC4, 5, 7-11)
Description: as §3

SIRT6 = target: T8, SIRT6 (Homo sapiens, UniProt Q8N6T7); test: Epigenetic panel (BPS Bioscience); type: biochemical
T8 construct: purchased BPS Bioscience; Eurofins (HDAC4, 5, 7-11)
Description: as §3

JMJD1A = target: T9, JMJD1A (Homo sapiens, UniProt Q9Y4C1); test: Epigenetic panel (BPS Bioscience); type: biochemical
T9 construct: purchased BPS Bioscience; Eurofins (HDAC4, 5, 7-11)
Description: as §3

SIRT5 = target: T10, SIRT5 (Homo sapiens, UniProt Q9NXA8); test: Epigenetic panel (BPS Bioscience); type: biochemical
T10 construct: purchased BPS Bioscience; Eurofins (HDAC4, 5, 7-11)
Description: as §3

PRMT6 = target: T11, PRMT6 (Homo sapiens, UniProt Q96LA8); test: Epigenetic panel (BPS Bioscience); type: biochemical
T11 construct: purchased BPS Bioscience; Eurofins (HDAC4, 5, 7-11)
Description: as §3

T3 sequence (O75164 whole entry): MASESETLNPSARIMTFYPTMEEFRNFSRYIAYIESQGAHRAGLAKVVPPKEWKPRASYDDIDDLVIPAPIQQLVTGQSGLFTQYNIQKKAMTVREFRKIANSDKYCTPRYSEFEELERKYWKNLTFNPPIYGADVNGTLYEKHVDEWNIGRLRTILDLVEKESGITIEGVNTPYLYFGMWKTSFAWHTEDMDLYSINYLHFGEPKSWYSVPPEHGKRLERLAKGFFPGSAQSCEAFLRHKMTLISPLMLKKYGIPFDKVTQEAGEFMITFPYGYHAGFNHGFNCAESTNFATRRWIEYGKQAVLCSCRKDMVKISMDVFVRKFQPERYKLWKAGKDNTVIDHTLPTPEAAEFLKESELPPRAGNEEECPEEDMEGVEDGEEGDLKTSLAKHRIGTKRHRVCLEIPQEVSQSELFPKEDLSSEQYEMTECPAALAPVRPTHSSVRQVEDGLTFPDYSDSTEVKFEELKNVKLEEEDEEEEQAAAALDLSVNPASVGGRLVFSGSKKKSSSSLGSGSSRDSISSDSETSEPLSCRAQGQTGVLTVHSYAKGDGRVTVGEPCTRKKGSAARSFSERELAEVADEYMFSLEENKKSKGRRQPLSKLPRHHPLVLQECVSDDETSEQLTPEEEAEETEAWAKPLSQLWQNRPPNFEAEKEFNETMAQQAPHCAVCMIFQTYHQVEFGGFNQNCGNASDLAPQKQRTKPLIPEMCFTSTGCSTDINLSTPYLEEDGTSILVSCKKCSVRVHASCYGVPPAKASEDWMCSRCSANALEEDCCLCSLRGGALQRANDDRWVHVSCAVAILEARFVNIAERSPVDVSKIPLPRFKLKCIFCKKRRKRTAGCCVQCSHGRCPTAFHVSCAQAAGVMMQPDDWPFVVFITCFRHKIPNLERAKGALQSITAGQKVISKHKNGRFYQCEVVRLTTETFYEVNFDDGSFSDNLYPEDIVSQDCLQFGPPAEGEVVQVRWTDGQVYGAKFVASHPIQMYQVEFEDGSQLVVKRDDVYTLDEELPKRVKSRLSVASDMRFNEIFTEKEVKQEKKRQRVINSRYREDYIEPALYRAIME
T7 sequence (Q15910 whole entry Y641S): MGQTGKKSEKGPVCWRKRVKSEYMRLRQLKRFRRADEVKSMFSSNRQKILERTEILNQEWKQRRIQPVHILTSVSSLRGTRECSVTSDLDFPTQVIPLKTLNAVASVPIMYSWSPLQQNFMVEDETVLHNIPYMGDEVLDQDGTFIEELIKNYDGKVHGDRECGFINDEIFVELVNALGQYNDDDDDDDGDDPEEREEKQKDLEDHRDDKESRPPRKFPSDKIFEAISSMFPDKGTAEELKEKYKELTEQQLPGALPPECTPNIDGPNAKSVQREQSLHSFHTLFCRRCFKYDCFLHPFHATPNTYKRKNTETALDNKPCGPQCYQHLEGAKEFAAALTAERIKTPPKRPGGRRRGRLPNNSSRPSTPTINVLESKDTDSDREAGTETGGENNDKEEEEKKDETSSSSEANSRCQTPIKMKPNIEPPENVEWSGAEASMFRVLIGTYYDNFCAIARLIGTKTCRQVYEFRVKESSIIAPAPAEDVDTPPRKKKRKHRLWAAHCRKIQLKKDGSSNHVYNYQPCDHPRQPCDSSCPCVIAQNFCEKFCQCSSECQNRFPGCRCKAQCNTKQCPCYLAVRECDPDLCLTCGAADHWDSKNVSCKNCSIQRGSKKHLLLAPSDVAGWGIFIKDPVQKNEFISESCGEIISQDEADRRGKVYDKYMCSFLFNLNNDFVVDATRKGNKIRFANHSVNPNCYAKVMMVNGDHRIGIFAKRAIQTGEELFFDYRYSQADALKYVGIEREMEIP
T7 sequence (O75530 whole entry partner): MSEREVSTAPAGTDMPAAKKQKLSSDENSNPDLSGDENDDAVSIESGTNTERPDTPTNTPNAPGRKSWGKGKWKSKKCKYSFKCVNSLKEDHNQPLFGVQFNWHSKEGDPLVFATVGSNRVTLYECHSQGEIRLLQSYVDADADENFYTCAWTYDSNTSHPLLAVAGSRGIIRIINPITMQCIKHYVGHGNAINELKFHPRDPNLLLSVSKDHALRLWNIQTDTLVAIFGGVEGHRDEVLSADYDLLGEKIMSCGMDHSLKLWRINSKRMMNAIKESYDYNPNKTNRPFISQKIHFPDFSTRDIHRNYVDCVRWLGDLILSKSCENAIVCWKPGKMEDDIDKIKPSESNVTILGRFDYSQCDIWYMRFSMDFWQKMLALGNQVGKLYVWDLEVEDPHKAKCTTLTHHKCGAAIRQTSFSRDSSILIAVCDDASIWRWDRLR
T7 sequence (Q15022 whole entry partner): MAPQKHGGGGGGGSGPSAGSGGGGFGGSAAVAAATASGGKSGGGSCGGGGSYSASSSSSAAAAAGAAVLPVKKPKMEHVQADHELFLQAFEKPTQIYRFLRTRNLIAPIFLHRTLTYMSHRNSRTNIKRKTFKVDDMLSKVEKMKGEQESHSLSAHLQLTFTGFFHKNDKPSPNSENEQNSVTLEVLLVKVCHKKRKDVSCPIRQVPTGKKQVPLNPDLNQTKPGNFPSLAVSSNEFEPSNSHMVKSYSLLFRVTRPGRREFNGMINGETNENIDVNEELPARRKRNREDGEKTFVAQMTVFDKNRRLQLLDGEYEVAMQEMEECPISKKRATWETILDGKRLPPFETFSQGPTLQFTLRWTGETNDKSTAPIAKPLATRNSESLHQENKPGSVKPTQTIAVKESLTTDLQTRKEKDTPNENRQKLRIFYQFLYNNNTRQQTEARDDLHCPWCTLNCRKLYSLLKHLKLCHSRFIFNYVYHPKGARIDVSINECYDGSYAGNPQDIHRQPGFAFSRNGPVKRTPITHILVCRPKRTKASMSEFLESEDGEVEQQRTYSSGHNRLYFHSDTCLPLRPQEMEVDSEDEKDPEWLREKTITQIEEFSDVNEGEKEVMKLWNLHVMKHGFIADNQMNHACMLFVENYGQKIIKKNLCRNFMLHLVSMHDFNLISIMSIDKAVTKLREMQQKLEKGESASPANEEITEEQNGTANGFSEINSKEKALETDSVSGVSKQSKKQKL
T7 sequence (Q09028 whole entry partner): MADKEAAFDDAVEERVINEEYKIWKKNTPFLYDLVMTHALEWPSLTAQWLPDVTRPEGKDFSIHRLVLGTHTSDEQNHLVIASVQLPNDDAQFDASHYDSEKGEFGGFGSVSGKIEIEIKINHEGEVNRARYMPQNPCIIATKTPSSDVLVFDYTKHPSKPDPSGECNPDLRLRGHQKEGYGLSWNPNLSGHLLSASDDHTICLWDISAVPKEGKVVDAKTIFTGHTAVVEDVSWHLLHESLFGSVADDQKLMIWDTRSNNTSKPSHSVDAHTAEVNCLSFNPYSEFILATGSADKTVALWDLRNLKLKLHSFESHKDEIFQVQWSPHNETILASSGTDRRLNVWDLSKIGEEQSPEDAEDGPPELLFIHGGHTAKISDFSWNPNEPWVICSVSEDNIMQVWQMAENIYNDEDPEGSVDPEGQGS
T7 sequence (Q6ZN18 whole entry partner): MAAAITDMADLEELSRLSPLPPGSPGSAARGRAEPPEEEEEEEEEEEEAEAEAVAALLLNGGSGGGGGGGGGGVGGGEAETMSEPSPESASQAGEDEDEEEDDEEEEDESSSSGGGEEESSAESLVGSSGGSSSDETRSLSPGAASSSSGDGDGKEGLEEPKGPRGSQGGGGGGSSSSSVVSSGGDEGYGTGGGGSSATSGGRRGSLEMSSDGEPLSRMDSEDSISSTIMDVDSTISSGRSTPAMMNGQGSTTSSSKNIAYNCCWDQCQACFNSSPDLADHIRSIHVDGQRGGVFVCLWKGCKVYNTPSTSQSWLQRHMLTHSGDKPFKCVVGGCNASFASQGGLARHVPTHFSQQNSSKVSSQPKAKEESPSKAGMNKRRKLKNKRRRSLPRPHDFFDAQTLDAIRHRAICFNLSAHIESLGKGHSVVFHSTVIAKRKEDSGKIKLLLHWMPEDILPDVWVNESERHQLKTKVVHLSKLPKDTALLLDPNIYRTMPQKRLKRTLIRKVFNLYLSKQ
T2 sequence (Q96EB6 whole entry): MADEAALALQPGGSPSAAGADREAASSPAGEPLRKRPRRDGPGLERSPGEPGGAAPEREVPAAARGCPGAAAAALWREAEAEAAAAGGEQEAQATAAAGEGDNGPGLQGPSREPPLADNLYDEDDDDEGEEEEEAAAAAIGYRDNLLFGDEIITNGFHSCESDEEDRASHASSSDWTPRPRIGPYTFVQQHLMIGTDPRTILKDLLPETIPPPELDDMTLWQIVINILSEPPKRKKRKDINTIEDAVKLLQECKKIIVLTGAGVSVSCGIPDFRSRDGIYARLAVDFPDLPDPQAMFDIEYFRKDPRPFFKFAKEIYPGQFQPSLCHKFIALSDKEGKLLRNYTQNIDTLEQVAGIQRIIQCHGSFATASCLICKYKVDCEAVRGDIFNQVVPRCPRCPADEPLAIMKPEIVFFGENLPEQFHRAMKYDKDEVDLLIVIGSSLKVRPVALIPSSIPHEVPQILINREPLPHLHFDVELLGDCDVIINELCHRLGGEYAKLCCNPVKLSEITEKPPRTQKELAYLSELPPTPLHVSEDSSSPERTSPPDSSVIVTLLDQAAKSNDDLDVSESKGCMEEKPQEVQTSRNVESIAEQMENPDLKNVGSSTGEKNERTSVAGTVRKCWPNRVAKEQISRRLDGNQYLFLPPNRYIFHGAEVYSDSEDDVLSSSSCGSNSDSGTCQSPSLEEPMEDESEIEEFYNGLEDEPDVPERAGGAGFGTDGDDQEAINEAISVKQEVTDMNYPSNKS
T6 sequence (Q15910 whole entry): as the sequence (Q15910 whole entry Y641S) above, with S641Y counted along it
T6 sequence (O75530 whole entry partner): as the sequence (O75530 whole entry partner) above
T6 sequence (Q15022 whole entry partner): as the sequence (Q15022 whole entry partner) above
T6 sequence (Q09028 whole entry partner): as the sequence (Q09028 whole entry partner) above
T6 sequence (Q6ZN18 whole entry partner): as the sequence (Q6ZN18 whole entry partner) above

How did the “overall survival (OS)” value ([1]; MOLM-13 i.v., 10 mg/kg i.p., 5 days on/2 off, 2 weeks) turn out when `COc1cc2nc(-c3ccc(C)o3)cc(NCC3CCN(c4ncc(C(=O)NO)cn4)CC3)c2cc1OC` [CM-444, 2-[4-[[[6,7-dimethoxy-2-(5-methyl-2-furyl)-4-quinolyl]amino]methyl]-1-piperidyl]pyrimidine-5-carbohydroxamic acid] was run?
Its value is “not having observed an increase in OS”.

What about the Body weight ([1]; day 4) of the same compound?
The Body weight was 22.8 and 24 (2×) and 25 and 23.7 and 22.6 (2×) and 23.6 and 23 and 25.3.

And the Body weight ([1]; day 6, in g (unit assumed))?
The Body weight was 23.1 and 23.8 and 23.5 and 25 and 24.1 and 23.2 and 23 and 22.6 and 22 and 26.2.

And the Body weight ([1]; day 8)?
The Body weight was 22 (2×) and 23.1 and 23.6 and 24.1 and 23.2 and 22.9 and 22.7 and 22.6 and 25.8.

What about the Body weight ([1]; day 11) of the same compound?
The Body weight was 21.7 and 22.4 and 23 and 24.4 and 22.3 and 22.8 and 22.2 (2×) and 21.4 and 24.5.

What about the Body weight ([1]; day 13) of the same compound?
Its Body weight is 22.1 (2×) and 23 and 23.1 and 24 and 22.7 and 22.9 and 22.3 and 21.2 and 24.8.

What about the “CD11b in blood samples” value ([2]; MV4-11 i.v., 10 mg/kg i.p.) of the same compound?
The value was “statistically significant increase in CD11b”.

And the “overall survival (OS)” value ([2]; MV4-11 i.v., 10 mg/kg i.p., 5 days on/2 off, 7 weeks)?
Its value is “increased overall survival”.

What about the “body weight of mice” value ([2]; day 20) of the same compound?
Its value is 26 (2×) and 24.2 and 24.3 and 23.2 and 24.5 (2×) and 25.1 and 24.8 and 27 and 25.7 and 24.

And the “body weight of mice” value ([2]; day 23)?
Its value is 26.5 and 24.3 (3×) and 24.7 and 23.9 and 25.1 and 25.2 and 24.9 and 24.6 and 27.6 and 26.2.

And the “body weight of mice” value ([2]; day 25)?
The value was 26.4 and 24.4 and 24.5 and 23.9 and 24.8 (2×) and 25.1 (2×) and 23.7 and 27.9 and 26.1 and 24.2.

What about the “body weight of mice” value ([2]; day 28) of the same compound?
The value was 25.9 and 24.3 and 24.1 (2×) and 22 and 24.6 (2×) and 25.3 and 25.1 and 27.9 and 26.2 and 24.2.

What about the “body weight of mice” value ([2]; day 30) of the same compound?
Its value is 26.4 and 24 (2×) and 23.8 and 20.4 and 24.3 and 25 and 24.7 and 24.2 and 27.6 and 25.5 and 24.5.

And the “body weight of mice” value ([2]; day 31)?
Its value is 25.8 and 24.8 (2×) and 24.4 and 22.9 and 25.7 and 24.5 and 23.7 and 27.3 and 24.6 and 24.7.

What about the “body weight of mice” value ([2]; day 35) of the same compound?
The value was 26.1 (2×) and 23.9 and 23.7 and 24.1 and 25.9 and 24.3 and 24.7 and 26.6 and 25.

And the “body weight of mice” value ([2]; day 37)?
The value was 26.5 and 24.6 and 24.4 and 25 (3×) and 27.2 (2×) and 27.7 and 27.

What about the “body weight of mice” value ([2]; day 42) of the same compound?
Its value is 25.9 and 24.4 and 22.5 and 24.3 (2×) and 27 and 25.2 and 26.9 and 27.3.

And the “CD11b levels in blood samples” value ([2]; mice engrafted intravenously with MV4-11 cells, individual mice (Fig 3E))?
Its value is 7.18% and 15.3% and 22.1% and 21.14% and 13% and 34.5% and 22% and 9.14% and 7.78%.

And the “Survival time (Kaplan-Meier, event = 1)” value ([2]; mice engrafted with MV4-11 cells intravenously, individual mice (Fig 3D))?
The value was 32 days and 46 days and 48 days and 51 days and 53 days and 54 days.

And the “Cell number (%) G1” value (MV4-11)?
The value was 92.37% and 89.49% and 89.94%.

And the “Cell number (%) G2/M” value (MV4-11)?
Its value is 2.21% and 0.68% and 3.29%.

And the “Cell number (%) S” value (MV4-11)?
Its value is 6.95% and 7.22% and 7.84%.

And the “Cell number (%) G1” value (MOLM-13)?
Its value is 98.91% and 98.32% and 98.59%.

And the “Cell number (%) G2/M” value (MOLM-13)?
Its value is 0.29% and 0.03% and 0.73%.

What about the “Cell number (%) S” value (MOLM-13) of the same compound?
The value was 1.06% and 0.95% and 1.11%.

And the “Cell number (%) G1” value (ML-2)?
Its value is 96.26% and 93.16% and 96.12%.

What about the “Cell number (%) G2/M” value (ML-2) of the same compound?
The value was 0.0429% and 0.75% and 2.61%.

And the “Cell number (%) S” value (ML-2)?
Its value is 2.99% and 4.24% and 3.84%.

What about the inhibition at 10 µM (Jarid1B) of the same compound?
The inhibition at 10 µM was 5%.

What about the inhibition at 10 µM (SIRT1) of the same compound?
The inhibition at 10 µM was 13%.

And the inhibition at 10 µM (JMJD2A)?
Its inhibition at 10 µM is 21%.

What about the inhibition at 10 µM (P300) of the same compound?
The inhibition at 10 µM was 10%.

And the inhibition at 10 µM (PRMT3)?
The inhibition at 10 µM was 0%.

And the inhibition at 10 µM (EZH2)?
The inhibition at 10 µM was 0%.

And the inhibition at 10 µM (EZH2 (Y641S))?
The inhibition at 10 µM was 4%.

And the inhibition at 10 µM (SIRT6)?
Its inhibition at 10 µM is 15%.

And the inhibition at 10 µM (JMJD1A)?
The inhibition at 10 µM was 3%.

And the inhibition at 10 µM (SIRT5)?
Its inhibition at 10 µM is 7%.

And the inhibition at 10 µM (PRMT6)?
Its inhibition at 10 µM is 0%.
